The values that follow come from patent US20100317736A1, “COMPOSITION OF THE SKIN EXTERNAL APPLICATION OR THE FOOD FOR ACCELERATING PROLINE RECYCLING BY CONTAINING THEANINE” (priority 2007, published 2010).

In data set [1] the test system is Human fibroblasts. The experiment in a line: Procollagen biosynthesis in dermal cells (ELISA). The format is cell-based. The conditions noted are these: 48 hours, FIG. 1. The protocol:
Human fibroblasts are cultured in the concentration of 10^4 in 48 well plates. The medium of the plates was replaced with a culture medium containing either 10 μM of vitamin C or 10 μM of transforming growth factor-β (TGF-β) and a culture medium containing either 0.1, 1, 10 or 100 μM of theanine. After culturing for 48 hours, the supernatants were harvested and synthesized procollagen was quantified using the ELISA (Takara MK101) method. The data were calculated relative to 100 of control group without containing the above substances and the result was shown in FIG. 1.
(In general: An ELISA detects its analyte on a solid surface through an enzyme-linked reagent.)

Data set [2] relates to Human fibroblasts. The experiment in a line: Cell viability (MTT). In kind it is cell-based. The note with it: 1, 10, 100, 1000 and 10000 μM theanine, 24 hours, FIG. 2. The procedure:
2×10^3 of human fibroblasts were cultured in a 96 well plate, treated with 1, 10, 100, 1000 and 10000 μM of theanine and incubated for 24 hours. 3-(4,5-dimethylazol-2-yl)-2,5-diphenyl-2H-tetraazoliumbromide (MTT) was added to the concentration of 0.5 mg/ml and further incubated for 4 hours.

For another data set, the system named is prolidase. The experiment in a line: Prolidase activity in dermal cells (Chinard reaction, Gly-Pro substrate). The format is cell-based, human. The conditions noted are these: 0.01, 0.1, 1, 2 or 10 mM theanine, 24 hours, versus untreated control, FIG. 3. The procedure: 10^5 of human fibroblasts were cultured in 6 well plates for 6 days. The medium was replaced with heat-inactivated fetal bovine serum and then incubated for an additional 24 hours. The medium was again replaced with a culture medium containing either 0.01, 0.1, 1, 2 or 10 mM of theanine. After 24 hours, the cells were harvested and subjected to the Chinard reaction. The cells were ultrasonically disrupted and centrifuged at 100,000×g for 15 minutes. The supernatant was collected and mixed with 2 mM MnCl2 in the same amount for the prolidase reaction. The mixture was pre-reacted at 37° C. for 24 hours. 94 mM glycine-proline (Gly-Pro) dipeptide as a substrate of the prolidase reaction was added thereto in the same amount of the pre-reacted mixture and reacted at 37° C. for 1 hours. Then, the reaction was ended by adding 0.45M TCA. The enzymatic activity of prolidase was determined by quantifying proline, which is isolated by prolidase, by the color development using ninhydrin reagent. The enzyme activity was shown as a value calculating the equation of amount of isolated proline over protein weight over time (Mol/min/mg) and the result is shown in FIG. 3.

The subject of data set [3] is Human fibroblasts. The experiment in a line: Total collagen biosynthesis in dermal cells (L-[3H]-proline incorporation). The note with it: 1 mM theanine, 24 hours, relative to 100 of control group, FIG. 4. In kind it is cell-based. The procedure:
5×10^4 of human fibroblasts were cultured in 24 well plates. The medium was replaced with a medium containing 164 kBq/ml L-[^3H]-proline and supplemented with theanine in a concentration either 0.01, 0.1, 1 or 10 mM. After incubation of 24 hours, the cells were harvested, disrupted and treated with collagenase to separate collagen. Then, the amount of ^3H increased by the treatment with theanine was determined using a liquid scintillation counter and compared to that of the control group which had not been treated with theanine. Without regard to the collagen type, the total collagen amount was measured and the data described in FIG. 4 are calculated relative to 100 of the control group. As a result, it was confirmed that the total collagen biosynthesis was increased by about 45% when treated with 1 mM of theanine.

In data set [4] the test system is SKH-1 female hairless mice. The experiment in a line: Collagen biosynthesis in hairless mice, closed patch test, western blotting. In kind it is in vivo. The note with it: cream of Example 1 (theanine 1) on back skin, closed patch test 2 weeks, versus Comparative Example 1, FIG. 5. From the text: In order to examine the effect of improving skin wrinkle of theanine, SKH-1 female hairless mice, about 7 weeks old, were subjected to a closed patch test for 2 weeks. Each cream of Example 1 and Comparative Example 1 was applied on the back skin of the hairless mouse and after the closed patch test, the skin was biopsed. Proteins were separated from the biopsed skin and assessed for collagen by western blotting.
A general note: A western blot detects proteins with antibodies after separation by electrophoresis.

The subject of data set [5] is female hairless mice (SKH, HR-1). The experiment in a line: Inhibition of photoaging in hairless mouse, oral administration, replica / SkinVisiometer. The format is in vivo. The conditions noted are these: 500 mg theanine per kg oral, 5 weeks, UV total 600 mJ/cm^2, versus Comparative Example 3, FIG. 7. From the text:
In order to examine the effect of orally administered theanine on photoaging, hairless mice were used as animal models for this experiment. As described in Table 2, 6 to 7 week old female hairless mice (SKH, HR-1) were divided into 3 groups of Comparative Example 2 (normal group), Comparative Example 3 (UV control group) and Example 2 (UV/theanine treatment group), each group having 8 mice and were raised for the experiment period.
The mice of Comparative Example 2 and Comparative Example 3 were orally administered with 0.5 ml of saline and the mice of Example 2 were administered with 500 mg of theanine, based on the solid faction, per kg of body weight dissolved in 0.5 ml of saline using a syringe for liquid injection. The administration was continued for total 5 weeks and performed at the predetermined time for 5 days per week. From 2 weeks through 5 weeks after the administration had started, the groups of Comparative Example 3 and Example 2 were irradiated by UV under conditions similar to solar light three times per week. Here, the total UV irradiation for the experiment period was set to 600 mJ/cm^2. In order to objectively judge the effect of improving wrinkle, a replica was taken from the back of each hairless mouse prior to an autopsy. The skin surface was imaged using SkinVisiometer to compare and rates the degree of the skin wrinkles.

A further data set concerns type 1 collagen. The experiment in a line: Immunohistochemistry of type 1 collagen in skin tissue. The format is in vivo, mice. The conditions noted are these: 500 mg theanine per kg oral, 5 weeks, UV, versus Comparative Example 3, FIG. 8. The protocol: This example was performed using the hairless mice of Example 2 and Comparative Example 2 to 3, which had been used in Experiment Example 6 and histopathological observation was performed by immunohistochemistry. The skin on the back of the hairless mice was taken, fixed in 10% neutral formalin and subjected to immunohistochemistry using monoclonal IgG1 antibody to examine the expression of type 1 collagen in the skin tissue.

Data set [6] concerns female hairless mice (SKH, HR-1). The experiment in a line: H&E staining, thickness of the epidermal layer. In kind it is in vivo. The note with it: for Thickness of epidermal layer: 500 mg theanine per kg oral, 5 weeks, UV. The protocol: In addition, the H&E (heamatoxylin & eosin) staining assay was performed for observation of general tissue condition and measurement of thickness of the epidermal layer. The thickness of the epidermal layer was measured at 10 different spots randomly selected per tissue by observing the H&E stained slide under the microscope with 100× magnification and the average value was shown in Table 3.

On to `CCNC(=O)CC[C@H](N)C(=O)O` [theanine], for which the procollagen production entry in the data set with Human fibroblasts [1] (0.1, 1, 10 or 100 μM theanine, relative to 100 of control group) is listed as “increased collagen production of fibroblast concentration-dependently”. Further, the “procollagen production compared with positive controls” value in the data set on Human fibroblasts [1] (versus 10 μM vitamin C or 10 μM TGF-β) is recorded as “higher procollagen production than the positive control groups”. For the same molecule, the “cell viability / toxicity (MTT)” value with Human fibroblasts [2] is listed as “not toxic at all”. The “prolidase activity (amount of isolated proline)” value with prolidase was “concentration-dependently increased”. The “increase of total collagen biosynthesis” value with Human fibroblasts [3] is on record as “about 45%”. In addition, the “collagen biosynthesis in skin (western blotting)” value in data set [4] is given as “increased the collagen biosynthesis in the hairless mice”. Besides, the “density and depth of the wrinkles on the skin surface” value in data set [5] was “alleviated as compared to those of Comparative Example 3”. Also, the “type 1 collagen staining in skin tissue” value in the data set on type 1 collagen was “more collagen was stained in the epidermal and dermal junction”. Moreover, the “Thickness of epidermal layer” value in data set [6] was 77.4%; in data set [6] (average of 10 spots per tissue, the values are: epidermal thickness), 7.56 ± 0.75 µm. The “decrease in the thickness of the epidermal layer” value in data set [6] (compared to the UV control group (Comparative Example 3)) was “about 23%”.
